Assay [1] relates to RAW264.7 cells. Put plainly: Transcription of NF-κB protein (p65, p50) into nucleus after LPS (Western blot). The format is cell-based. The settings on record: 3 h pretreatment (Table 3 amounts), LPS 1 μg/ml 1 h. As for the experimental part:
RAW264.7 cells or BV2 cells (5×10^5 cells/well) were dispensed in DMEM containing 10% heat-inactivated FBS, 10 IU/mL penicillin G, 100 μg/mL streptomycin and 2 mM L-glutamine and cultured in a 5% CO2 incubator at a temperature of 37° C. […]
(§1) The pretreated cells of Experimental Example 4-1 were treated with 1 μg/ml of LPS for 1 hour, and then the level of transcription of NF-κB protein into the nucleus of each of p65 and p50 was analyzed through Western blot.
On the technique in general: In western blotting, separated proteins are transferred to a membrane and probed.

The target in assay [2] is T1, rePON1 (PON1, paraoxonase 1) (Homo sapiens, UniProt P27169).
T1 construct: purchased Thermo Corp. RP-75678
T1 sequence (P27169 whole entry): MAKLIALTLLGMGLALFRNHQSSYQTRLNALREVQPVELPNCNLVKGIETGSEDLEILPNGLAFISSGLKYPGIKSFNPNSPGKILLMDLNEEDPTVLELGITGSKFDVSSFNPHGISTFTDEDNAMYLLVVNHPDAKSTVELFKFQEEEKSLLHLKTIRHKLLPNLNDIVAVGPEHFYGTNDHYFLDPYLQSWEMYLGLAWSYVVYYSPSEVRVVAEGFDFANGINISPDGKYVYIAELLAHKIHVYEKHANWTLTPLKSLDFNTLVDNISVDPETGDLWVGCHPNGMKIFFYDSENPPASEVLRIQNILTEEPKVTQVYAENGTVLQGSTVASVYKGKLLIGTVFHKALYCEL
Put plainly: Prevention of inhibition of PON1 activity by oxidized linolenic acid (TBBL substrate). The format is biochemical. The settings on record: for activity at 30 µM: 30 μM compound with rePON1 30 min, then oxidized linolenic acid 2 h, TBBL substrate, normal control 100, negative control 73.64; for extent to which inhibition of rePON1 activity was prevented, compared with glabridin: compound 30 μM vs glabridin 30 μM; for extent to which inhibition of rePON1 activity was prevented, compared with glabridin / inhibition of rePON1 activity by oxidized linolenic acid: result in words; for inhibition of rePON1 activity by oxidized linolenic acid: compound 30 μM. The procedure: Based on the fact that the activity of PON1 is inhibited when PON1 is treated with oxidized linolenic acid, an experiment was conducted to confirm the prevention of inhibition of PON1 activity. The activity of PON1 was measured using TBBL (5-thiobutyl butyrolactones) as a substrate.
Specifically, after 9.6 μl of 50 mM Tris-HCl containing 1 mM CaCl2 was added to each of […] Eppendorf tubes, 0.2 μl of each of the compounds of Formulas III-1, IV-1, V-1, IV-2, V-2, II-1, IV-3, V-3, III-2, IV-4, V-4, II-2 and III-3 and glabridine was added to each tube so that the concentration thereof was 30 μM. 0.2 μl of rePON1 (RP-75678, Thermo Corp.) was added to each of the 12 tubes and mixed. Thereafter, each of the mixtures was allowed to react at room temperature for 30 minutes, and 0.5 μl of 1 mM oxidized linolenic acid (OX-LA) dissolved in DMSO was added thereto in order to inhibit rePON1 activity, followed by reaction at room temperature for 2 hours, thus preparing solutions (I).
25 μl of 0.5 mM DTNB dissolved in 50 mM Tris-HCl containing 1 mM CaCl2 was dispensed into each well of a 384-well plate, and then 10 μl of each of the solutions (I) was dispensed into each well, and 20 μl of 2 mM TBBL dissolved in 50 mM Tris-HCl containing 1 mM CaCl2 was added to each well, thus preparing samples. The absorbance of each of the samples at 420 nm was measured using a spectrometer (SpectraMax M2) at 37° C. every 2 minutes for 1 hour.
In addition, a negative control was prepared in the same manner as the above-described method, except that, for the preparation of a solution, 0.2 μl of DMSO was added instead of the compounds of Formulas III-1, IV-1, V-1, IV-2, V-2, II-1, IV-3, V-3, III-2, IV-4, V-4, II-2 and III-3 and glabridin. Furthermore, a normal control was prepared in the same manner as the above-described method, except that, for the preparation of a solution, 0.2 μl of DMSO was added instead of the above-described compounds and glabridin and that oxidized linolenic acid was not added. The absorbance of each of the negative control and the normal control was measured.
Using SoftMax Pro software, the activity of PON1 was calculated from the absorbance using the following Equation 1, and the results are shown in Table 1 below.
Activity=(absorbancesample−absorbanceblank)/(absorbancePON1−absorbanceblank)*100 [Equation 1]

Assay [3] relates to BV2 cells. Put plainly: iNOS and COX-2 expression after LPS (Western blot). The format is cell-based. The settings on record: 3 h pretreatment (Table 3 amounts), LPS 1 μg/ml 24 h. The procedure:
(§2) RAW264.7 cells or BV2 cells (5×10^5 cells/well) were dispensed in DMEM containing 10% heat-inactivated FBS, 10 IU/mL penicillin G, 100 μg/mL streptomycin and 2 mM L-glutamine and cultured in a 5% CO2 incubator at a temperature of 37° C.
(§3) The compound of Formula III-3, III-4, V-3, III-1, IV-1, V-1, IV-2, V-2 or II-2 was added to the RAW264.7 cells or BV2 cells, and the toxicities of the compounds were determined by MTT assay.
(§4) The pretreated cells of Experimental Example 4-1 were treated with 1 μg/ml of LPS for 24 hours, and then the expression levels of iNOS and COX-2 were observed through Western blot, and the production of NO and PGE2 was measured.

The subject of assay [4] is RAW264.7 cells. Put plainly: iNOS and COX-2 expression after LPS (Western blot). The assay is classed as cell-based. The conditions noted are these: 3 h pretreatment (Table 3 amounts), LPS 1 μg/ml 24 h. The procedure:
as §2, §3, §4

Assay [5] deals with BV2 cells. Put plainly: NO and PGE2 production after LPS. The format is cell-based. The conditions noted are these: 3 h pretreatment (Table 3 amounts), LPS 1 μg/ml 24 h. As for the experimental part:
as §2, §3, §4

For assay [6], the system named is RAW264.7 cells. Put plainly: NO and PGE2 production after LPS. The settings on record: 3 h pretreatment (Table 3 amounts), LPS 1 μg/ml 24 h. The assay is classed as cell-based. As for the experimental part: as §2, §3, §4
The test system of assay [7] is BV2 cells. Put plainly: Transcription of NF-κB protein (p65, p50) into nucleus after LPS (Western blot). The conditions noted are these: 3 h pretreatment (Table 3 amounts), LPS 1 μg/ml 1 h. The format is cell-based. As for the experimental part: as §2, §3, §1
Assay [8] relates to BV2 cells. Put plainly: IL-1β, IL-6 and TNF-α mRNA expression after LPS (RT-PCR). The format is cell-based. The settings on record: 3 h pretreatment (Table 3 amounts), LPS 1 μg/ml 6 h. As for the experimental part:
as §2, §3
(§5) The pretreated cells of Experimental Example 4-1 were treated with 1 μg/ml of LPS for 6 hours, and then the mRNA expression level of the cytokine IL-1β, IL-6 or TNF-α produced in the inflammatory response was analyzed using RT-PCR.

Assay [9] concerns RAW264.7 cells. The description is as above. The settings on record: 3 h pretreatment (Table 3 amounts), LPS 1 μg/ml 6 h. The assay is classed as cell-based. The procedure:
as §2, §3, §5

The structures appear in SMILES notation.

With `CCCOc1ccc([C@H]2COc3c(ccc4c3CCC(C)(C)O4)C2)c(O)c1` [Formula V-2, (S)-2-(8,8-dimethyl-2,3,4,8,9,10-hexahydropyrano[2,3-f]chromen-3-yl)-5-propoxyphenol], in the assay with RAW264.7 cells [1], the “level of transcription of NF-κB protein into the nucleus, p50” value (“level of transcription … p50” below) is recorded as “concentration-dependently decreased” and the “level of transcription of NF-κB protein into the nucleus, p65” value (“level of transcription … p65” below) is “concentration-dependently decreased”. Further, in assay [2], the activity at 30 µM stood at 89.4%; the “extent to which inhibition of rePON1 activity was prevented, compared with glabridin” value is “greater”; the “inhibition of rePON1 activity by oxidized linolenic acid” value (“inhibition … by oxidized linolenic acid” below) is listed as “prevented”. For the same molecule, in the assay on BV2 cells [3], the “expression level of COX-2” value is recorded as “concentration-dependently decreased” and the “expression level of iNOS” value was “concentration-dependently decreased”. In the assay with RAW264.7 cells [4], the “expression level of COX-2” value is recorded as “concentration-dependently decreased” and the “expression level of iNOS” value is on record as “concentration-dependently decreased”. In the assay with BV2 cells [5], the “production of NO” value is given as “concentration-dependently decreased” and the “production of PGE2” value is recorded as “concentration-dependently decreased”. Besides, in the assay with RAW264.7 cells [6], the “production of NO” value is on record as “concentration-dependently decreased” and the “production of PGE2” value is reported as “concentration-dependently decreased”. Also, in the assay on BV2 cells [7], the “level of transcription … p50” value was “concentration-dependently decreased” and the “level of transcription … p65” value is given as “concentration-dependently decreased”. Further, in the assay on BV2 cells [8], the “mRNA expression level of IL-1β” value is “concentration-dependently decreased”, the “mRNA expression level of IL-6” value is “concentration-dependently decreased” and the “mRNA expression level of TNF-α” value was “concentration-dependently decreased”. In addition, in the assay with RAW264.7 cells [9], the “mRNA expression level of IL-1β” value is listed as “concentration-dependently decreased”, the “mRNA expression level of IL-6” value is recorded as “concentration-dependently decreased” and the “mRNA expression level of TNF-α” value was “concentration-dependently decreased”.

On to `CCCc1ccc([C@@H]2COc3c(ccc4c3CCC(C)(C)O4)C2)c(O)c1` [Formula IV-3, (R)-2-(8,8-dimethyl-2,3,4,8,9,10-hexahydropyrano[2,3-f]chromen-3-yl)-5-propylphenol], for which, in assay [2], the activity at 30 µM was found to be 90.6%; the “extent to which inhibition of rePON1 activity was prevented, compared with glabridin” value is reported as “greater”; the “inhibition … by oxidized linolenic acid” value is reported as “prevented”.

Regarding `CCCCOc1ccc([C@@H]2COc3c(ccc4c3CCC(C)(C)O4)C2)c(O)c1` [Formula IV-4, (R)-2-(8,8-dimethyl-2,3,4,8,9,10-hexahydropyrano[2,3-f]chromen-3-yl)-5-butoxyphenol], in assay [2], the activity at 30 µM worked out at 94.1%; the “extent to which inhibition of rePON1 activity was prevented, compared with glabridin” value is on record as “greater”; the “inhibition … by oxidized linolenic acid” value is reported as “prevented”.

Regarding `CCOc1cc(O)ccc1C1COc2c(ccc3c2CCC(C)(C)O3)C1` (stereo not drawn) [Formula III-2, 4-(8,8-dimethyl-2,3,4,8,9,10-hexahydropyrano[2,3-f]chromen-3-yl)-3-ethoxyphenol], in [2], the activity at 30 µM is 83.8%; the “extent to which inhibition of rePON1 activity was prevented, compared with glabridin” value is given as “greater”; the “inhibition … by oxidized linolenic acid” value is on record as “prevented”.

For `CC1(C)C=Cc2c(ccc3c2OCC(c2ccc(O)cc2O)=C3)O1` [Formula II-1, 4-(8,8-dimethyl-2,8-dihydropyrano[2,3-f]chromen-3-yl)benzene-1,3-diol], in [2], the activity at 30 µM came to 85.9%; the “extent to which inhibition of rePON1 activity was prevented, compared with glabridin” value is given as “greater”; the “inhibition … by oxidized linolenic acid” value is “prevented”.

Take `CCCCOc1ccc([C@H]2COc3c(ccc4c3CCC(C)(C)O4)C2)c(O)c1` [Formula V-4, (S)-2-(8,8-dimethyl-2,3,4,8,9,10-hexahydropyrano[2,3-f]chromen-3-yl)-5-butoxyphenol]: in assay [2], the activity at 30 µM stood at 94.9%; the “extent to which inhibition of rePON1 activity was prevented, compared with glabridin” value is given as “greater”; the “inhibition … by oxidized linolenic acid” value is given as “prevented”.

Take `CCCc1ccc(C2COc3c(ccc4c3CCC(C)(C)O4)C2)c(O)c1` (stereo not drawn) [Formula III-4, 2-(8,8-dimethyl-2,3,4,8,9,10-hexahydropyrano[2,3-f]chromen-3-yl)-5-propylphenol]: in the assay with RAW264.7 cells [1], the “level of transcription … p50” value is recorded as “concentration-dependently decreased” and the “level of transcription … p65” value is listed as “concentration-dependently decreased”. Further, in the assay with BV2 cells [3], the “expression level of COX-2” value is “concentration-dependently decreased” and the “expression level of iNOS” value is given as “concentration-dependently decreased”. Besides, in the assay on RAW264.7 cells [4], the “expression level of COX-2” value is “concentration-dependently decreased” and the “expression level of iNOS” value was “concentration-dependently decreased”. In the assay on BV2 cells [5], the “production of NO” value is listed as “concentration-dependently decreased” and the “production of PGE2” value is reported as “concentration-dependently decreased”. In addition, in the assay on RAW264.7 cells [6], the “production of NO” value is recorded as “concentration-dependently decreased” and the “production of PGE2” value is recorded as “concentration-dependently decreased”. For the same molecule, in the assay with BV2 cells [7], the “level of transcription … p50” value is “concentration-dependently decreased” and the “level of transcription … p65” value was “concentration-dependently decreased”. Further, in the assay on BV2 cells [8], the “mRNA expression level of IL-1β” value is given as “concentration-dependently decreased”, the “mRNA expression level of IL-6” value is recorded as “concentration-dependently decreased” and the “mRNA expression level of TNF-α” value was “concentration-dependently decreased”. Also, in the assay on RAW264.7 cells [9], the “mRNA expression level of IL-1β” value is reported as “concentration-dependently decreased”, the “mRNA expression level of IL-6” value was “concentration-dependently decreased” and the “mRNA expression level of TNF-α” value was “concentration-dependently decreased”.

(Values after patent US20220257557A1, “PHARMACEUTICAL COMPOSITION FOR PREVENTING OR TREATING NEUROLOGICAL DISEASES” (GLACEUM INC., priority 2019, published 2022).)
